Reference: patent US7279548B2, “Identification and isolation of novel polypeptides having WW domains and methods of using same” (Cytogen Corporation, priority 1996, dated 2007)

Columns and labels:
[1] = tested on: twelve individual novel WW domains of WWP1, WWP2, WWP3 and WWP4; experiment: ELISA based cross affinity mapping, whole panel of novel WW domains; assay type: binding, human; conditions: biotinylated peptide-streptavidin/alkaline phosphatase complex, GST fusion proteins
Experimental: (§1) The 16 day mouse embryo cDNA expression library was diluted 1:1000 in SM solution (100 mM NaCl, 8 mM MgSOv4, 50 mM Tris HCl pH 7.5, 0.01% gelatin). To a sterile test tube, 2 μl of diluted mouse embryo library, 100 μl of 10 mM CaCl2, 100 μl of 10 mM MgCl2 and 100 μl of BL21(DE3)pLysE bacterial cells (grown overnight) were added and incubated for 30 minutes at 37° C. The contents of the tube were mixed with 3 ml of 0.6% top agarose, containing […] chloramphenicol, and poured onto a 2xYT plate (90 mm diameter). For a large primary screen, 10–20 plates were prepared with 3×10^4 pfu per plate. After 6 hours incubation at 37° C., a nitrocellulose filter soaked in 10 mM isopropyl-β-D-thiogalactopyranoside (IPTG) was overlaid on each plate and incubated 3–6 hours at 37° C. Before the filters were removed from the plates, they were marked asymmetrically with India ink in a 18 gauge syringe needle. The plates were stored at 4° C. until ready for the secondary screen. The filters were washed with PBS (137 mM NaCl, 2.7 mM KCl, 4.3 mM Na2HPO4, 1.4 mM KH2PO4)-0.05% Triton X-100 three times at room temperature, 15 minutes each wash, and then placed in a plastic bag containing non-specific blocking solution (PBS-2% BSA) for one hour. In the meantime, 1 ml of 1 mM biotinylated peptide in PBS-0.1% Tween 20 was added to 20 ml of 1 mg/ml streptavidin-alkaline phosphatase (SA-AP) in PBS-0.1% Tween 20 and incubated at 4° C. for 30 minutes. […] Excess biotin-binding sites would then be blocked by addition of 500 pmol biotin. […] Ten μl of 0.1 mM biotin would then be added, and the solution incubated for an additional 15 min.
(§2) To determine the ligand preferences of the novel WW omain-containing clones described in Sections 6.1 and 6.1.1, as well as addressing the issue of whether peptides containing PPPPY (SEQ ID NO:3)-like motifs derived from a variety of proteins could also serve as recognition units and bind to these clones, a cross affinity mapping experiment was performed (FIGS. 15A–D). The peptides shown in FIGS. 15A–D were synthesized, biotinylated, complexed with streptavidin-alkaline phosphatase, and tested in an ELISA based assay for their ability to bind to the twelve individual novel WW domains of WWP1, WWP2, WWP3 and WWP4 which were expressed as GST fusion proteins. The ELISA based cross-affinity experiments were performed essentially as described by Sparks et al. (1996, Proc. Natl. Acad. Sci. 93:1540–1544) with the following modifications. Briefly, microtiter wells were coated with 1–5 μg of fusion protein in 100 mM NaHCO3, blocked with SuperBlock TBS (Pierce) and washed four times with PBS, 0.05% Tween 20. Specific peptide-streptavidin/alkaline phosphatase complexes were added as above and unbound complexes washed five times with PBS, 0.05% Tween 20. Following addition of PNP substrate (p-nitrophenyl phosphate, Kirkegard & Perry Labs), peptide binding was quantitated after 30 min. at O.D. 405 nm. Relative binding measurements from three independent determinations were assigned to a scale as follows: O.D. units 0–0.5=(−), 0.5–1.0=(+), 1.0–2.0=(++), 2.0–3.0=(+++), >3.0=(++++). Peptide binding to human Fyn and Lyn SH3 and SH2 domains was assessed by a filter binding assay (see Section 6.1 and Sparks et al., 1996, Proc. Natl. Acad. Sci 93:1540–1544). Peptide sequences used in cross-affinity experiments correspond to segments of the following genes: RasGap (Database accession # P20936), AP-2 (P05549), p53BP-2 (U09582), IL-6Rα (P22272), voltage-gated chloride channel CLCN5 (X91906), IL-2Rγ (D111086), RSV (D10652), HTLV-1 (D13784), β-dystroglycan (L19711), Formin (X53599), amiloride-sensitive epithelial Na^+ channel ENaCα (P37089), ENaCβ (X87159) and ENaCγ (X87160), muscarinic acetylcholine receptor M4 AChR (P08173), and c-Abl (P00522). Src and Crk SH3 binding peptide sequences were derived from a phage display random peptide library screen (Section 6.1 and Sparks et al., 1996, Proc. Natl. Acad. Sci. 93:1540–1544).

[2] = tested on: WW domains of WWP1 expressed as GST fusion proteins; experiment: ELISA based cross affinity mapping, WW domains of WWP1; assay type: binding, human; conditions: biotinylated peptide-streptavidin/alkaline phosphatase complex; GST fusion proteins; ELISA
Experimental: as §1, §2

[3] = tested on: WW domains of WWP2 expressed as GST fusion proteins; experiment: ELISA based cross affinity mapping, WW domains of WWP2; assay type: binding, human; conditions: biotinylated peptide-streptavidin/alkaline phosphatase complex; GST fusion proteins; ELISA
Experimental: as §1, §2

[4] = target: T1, WWP3 WW domain expressed as GST fusion protein (Homo sapiens, UniProt Q96QZ7); experiment: ELISA based cross affinity mapping, WWP3 WW domain; assay type: binding; conditions: biotinylated peptide-streptavidin/alkaline phosphatase complex
T1 construct: made in house
Experimental: The 16 day mouse embryo cDNA expression library was diluted 1:1000 in SM solution (100 mM NaCl, 8 mM MgSOv4, 50 mM Tris HCl pH 7.5, 0.01% gelatin). To a sterile test tube, 2 μl of diluted mouse embryo library, 100 μl of 10 mM CaCl2, 100 μl of 10 mM MgCl2 and 100 μl of BL21(DE3)pLysE bacterial cells (grown overnight) were added and incubated for 30 minutes at 37° C. The contents of the tube were mixed with 3 ml of 0.6% top agarose, containing […] chloramphenicol, and poured onto a 2xYT plate (90 mm diameter). For a large primary screen, 10–20 plates were prepared with 3×10^4 pfu per plate. After 6 hours incubation at 37° C., a nitrocellulose filter soaked in 10 mM isopropyl-β-D-thiogalactopyranoside (IPTG) was overlaid on each plate and incubated 3–6 hours at 37° C. Before the filters were removed from the plates, they were marked asymmetrically with India ink in a 18 gauge syringe needle. The plates were stored at 4° C. until ready for the secondary screen. The filters were washed with PBS (137 mM NaCl, 2.7 mM KCl, 4.3 mM Na2HPO4, 1.4 mM KH2PO4)-0.05% Triton X-100 three times at room temperature, 15 minutes each wash, and then placed in a plastic bag containing non-specific blocking solution (PBS-2% BSA) for one hour. In the meantime, 1 ml of 1 mM biotinylated peptide in PBS-0.1% Tween 20 was added to 20 ml of 1 mg/ml streptavidin-alkaline phosphatase (SA-AP) in PBS-0.1% Tween 20 and incubated at 4° C. for 30 minutes. As an alternative method of forming multivalent complexes, 50 pmol biotinylated peptide could have been incubated with 2 μg SA-AP (for a biotin:biotin-binding site ratio of 1:1). Excess biotin-binding sites would then be blocked by addition of 500 pmol biotin. As a further alternative, 31.2 μl of 1 mg/ml SA-AP could have been incubated with 15 μl of 0.1 mM biotinylated peptide for 30 min at 4° C. Ten μl of 0.1 mM biotin would then be added, and the solution incubated for an additional 15 min.
as §2, with “Peptide sequences used in cross-affinity experiments correspond to segments of the following genes: RasGap (Database accession # P20936), AP-2 (P05549), p53BP-2 (U09582), IL-6Rα (P22272), voltage-gated chloride channel CLCN5 (X91906), IL-2Rγ (D111086), RSV (D10652), HTLV-1 (D13784), β-dystroglycan (L19711), Formin (X53599), amiloride-sensitive epithelial Na^+ channel ENaCα (P37089), ENaCβ (X87159) and ENaCγ (X87160), muscarinic acetylcholine receptor M4 AChR (P08173), and c-Abl (P00522). Src and Crk SH3 binding peptide sequences were derived from a phage display random peptide library screen (Section 6.1 and Sparks et al., 1996, Proc. Natl. Acad. Sci. 93:1540–1544).” left out

[5] = tested on: WW domains of WWP4 expressed as GST fusion proteins; experiment: ELISA based cross affinity mapping, WW domains of WWP4; assay type: binding, human; conditions: biotinylated peptide-streptavidin/alkaline phosphatase complex; GST fusion proteins; ELISA
Experimental: as §1, §2

T1 sequence (Q96QZ7 300-337 limits assumed): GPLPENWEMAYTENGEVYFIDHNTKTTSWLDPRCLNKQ

Substance	binding to the novel WW domains (WWP1, WWP2, WWP3, WWP4 panel) [1]	binding to WW domains of WWP1 [2]	binding to WW domains of WWP2 [3]	binding to WWP3 WW domain [4]	binding to WW domains of WWP4 [5]
β dystroglycan-2: second peptide from dystrophin interacting molecule β-dystroglycan (YRSPPPYVPP)	bound to WW domains from one or more of the four novel clones	–	–	–	–
WBP-2A-Pro4: WBP-2A peptide with substitution of the third proline residue (SGSGYVQPPPAPYPGPM)	–	absolutely essential for binding	absolutely essential for binding	absolutely essential for binding	absolutely essential for binding
p53BP-2: peptide with PPPPY-like motif from p53 binding protein-2 (U09582) (YPPYPPPPYPSG)	bound to WW domains from one or more of the four novel clones	–	–	–	–
bWW060: alanine substitution variant of the tyrosine residue of the PPPPY-like domain of WWP4 (NRLDLPPAETFED)	–	abolished binding activity	abolished binding activity	–	abolished binding activity
IL-2R: peptide from interleukin receptor IL-2R (YWAPPCYTLK)	bound to WW domains from one or more of the four novel clones	–	–	–	–
AP-2: peptide with PPPPY-like motif from AP-2 transcription factor (P05549) (PYFPPPYQPI)	bound to WW domains from one or more of the four novel clones	–	–	–	–
WBP-2A-Pro3: WBP-2A peptide with substitution of the second proline (SGSGYVQPPAPPYPGPM)	–	–	is not	–	is not
biotin - PGTPPPKYNTLRL [ENaCγ]	–	positive interaction	positive interaction	positive interaction	positive interaction
bWW062: alanine substitution variant of the tyrosine residue of the PPPPY-like domain of WWP2 (NRLDLPPAKSYEQ)	–	abolished binding activity	abolished binding activity	–	abolished binding activity
RasGap: peptide with PPPPY-like motif from a segment of RasGap (P20936) (PLPPPPYLPP)	bound to WW domains from one or more of the four novel clones	–	–	–	–
β-dystroglycan-1: peptide from dystrophin interacting molecule β-dystroglycan (L19711) (PLPPPEYPNQ)	bound to WW domains from one or more of the four novel clones	–	–	–	–
biotin - PGTPPPNYDSLRL [ENaCβ]	–	positive interaction	positive interaction	positive interaction	positive interaction
IL-6R: peptide from interleukin receptor IL-6R (TTSPPPPPYS)	bound to WW domains from one or more of the four novel clones	–	–	–	–
ENaCβ-Y618H: mutant ENaCβ peptide, Liddle syndrome missense substitution, PPPNY to PPPNH (PGTPPPNHDSLRL)	–	do not bind	do not bind	–	do not bind
ENaCβ-P616L: mutant ENaCβ peptide, Liddle syndrome missense substitution, PPPNY to PPLNY (PGTPPLNYDSLRL)	–	do not bind	do not bind	–	do not bind
